Active and inactive are the calls of the source. The calls are words filed in the database; no cut-off is given here.
Columns and labels:
Cavia porcellus [1] = test: Skin phototoxicity was evaluated after UVA irradiation at a dose of 0.05 (umol cm e-2) and formation of erythema was reported; Strong (with edema); format: functional, organism-based
HeLa = test: Compound was evaluated for its antiproliferative activity after UVA irradiation on human tumor HeLa cell line; format: functional, cell-based; conditions: light or radiation study
HL-60 = test: Compound was evaluated for its antiproliferative activity after UVA irradiation on human tumor HL-60 cell line; format: functional, cell-based; conditions: HL-60, light or radiation study
Cavia porcellus [2] = species: Cavia porcellus; test: Skin phototoxicity was evaluated after UVA irradiation at a dose of 0.2 (umol cm e-2) and formation of erythema was reported; Absent; format: functional, organism-based

In the case of `COc1c2occc2cc2ccc(=O)oc12`, the Formation of erythema (Cavia porcellus [1]) is reported as “Active”.
In the case of `Cc1cc(=O)oc2nc3scc(C)c3cc12`, the IC50 (HeLa) is reported as 8.9 µM, the IC50 (HL-60) is reported as 2.2 µM and the Formation of erythema (Cavia porcellus [2]) is reported as “inactive”.
In the case of `Cc1sc2nc3oc(=O)cc(C)c3cc2c1C`, the IC50 (HeLa) is reported as over 20 µM, the IC50 (HL-60) is reported as 7.3 µM and the Formation of erythema (Cavia porcellus [2]) is reported as “inactive”.

Reference: ChEMBL document CHEMBL1135867, “Synthesis, photobiological activity and photoreactivity of methyl-thieno-8-azacoumarins, novel bioisosters of psoralen” (Bioorg Med Chem Lett, 2002)
